According to PubChem BioAssay (NCI):
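A five-concentration, 48-hour dose response in 96-well plates underlies each endpoint, interpolated linearly between surrounding concentrations. Here, GI50 denotes the concentration required for 50% inhibition of growth. TGI is the concentration that stops growth completely.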

Key:
Test in all cases: NCI tumour cell line growth inhibition, 48 h
OVCAR-5 ovarian = test system: OVCAR-5 ovarian
SK-OV-3 ovarian = test system: SK-OV-3 ovarian
HCT-15 colon = test system: HCT-15 colon
SK-MEL-5 melanoma = test system: SK-MEL-5 melanoma
HT29 colon = test system: HT29 colon
HS 578T breast = test system: HS 578T breast
UACC-257 melanoma = test system: UACC-257 melanoma
EKVX NSCLC = test system: EKVX NSCLC
T-47D breast = test system: T-47D breast
BT-549 breast = test system: BT-549 breast
UACC-62 melanoma = test system: UACC-62 melanoma
UO-31 renal = test system: UO-31 renal
COLO 205 colon = test system: COLO 205 colon
HOP-62 NSCLC = test system: HOP-62 NSCLC
MDA-MB-435 = test system: MDA-MB-435
K-562 leukemia = test system: K-562 leukemia
SW-620 colon = test system: SW-620 colon
TK-10 renal = test system: TK-10 renal
LOX IMVI melanoma = test system: LOX IMVI melanoma
OVCAR-8 ovarian = test system: OVCAR-8 ovarian
IGROV1 ovarian = test system: IGROV1 ovarian
MALME-3M melanoma = test system: MALME-3M melanoma
SF-268 CNS = test system: SF-268 CNS
KM12 colon = test system: KM12 colon
OVCAR-4 ovarian = test system: OVCAR-4 ovarian
OVCAR-3 ovarian = test system: OVCAR-3 ovarian
SNB-75 CNS = test system: SNB-75 CNS
NCI-H226 lung = test system: NCI-H226 lung
NCI/ADR-RES ovarian = test system: NCI/ADR-RES ovarian
NCI-H23 lung = test system: NCI-H23 lung
PC-3 prostate = test system: PC-3 prostate
SN12C renal = test system: SN12C renal
SK-MEL-28 melanoma = test system: SK-MEL-28 melanoma
RXF 393 renal = test system: RXF 393 renal
NCI-H522 lung = test system: NCI-H522 lung
A498 renal = test system: A498 renal
HCT-116 colon = test system: HCT-116 colon
SF-539 CNS = test system: SF-539 CNS
786-0 renal = test system: 786-0 renal
SF-295 CNS = test system: SF-295 CNS
SK-MEL-2 melanoma = test system: SK-MEL-2 melanoma
CAKI-1 renal = test system: CAKI-1 renal
A549 NSCLC = test system: A549 NSCLC
SNB-19 CNS = test system: SNB-19 CNS
HCC-2998 colon = test system: HCC-2998 colon
MCF7 breast = test system: MCF7 breast
DU-145 prostate = test system: DU-145 prostate
U251 CNS = test system: U251 CNS
MDA-MB-231 breast = test system: MDA-MB-231 breast
M14 melanoma = test system: M14 melanoma
NCI-H460 lung = test system: NCI-H460 lung
ACHN renal = test system: ACHN renal

Which results are given for `O=C(O)CNC(=O)C(CS)Cc1ccccc1` (centres undefined)?
GI50 (OVCAR-5 ovarian): > 25 µM; TGI (OVCAR-5 ovarian): > 25 µM; GI50 (SK-OV-3 ovarian): > 25 µM; TGI (SK-OV-3 ovarian): > 25 µM; GI50 (HCT-15 colon): > 25 µM; TGI (HCT-15 colon): > 25 µM; GI50 (SK-MEL-5 melanoma): > 25 µM; TGI (SK-MEL-5 melanoma): > 25 µM; GI50 (HT29 colon): > 25 µM; TGI (HT29 colon): > 25 µM; GI50 (HS 578T breast): > 25 µM; TGI (HS 578T breast): > 25 µM; GI50 (UACC-257 melanoma): > 25 µM; TGI (UACC-257 melanoma): > 25 µM; GI50 (EKVX NSCLC): > 25 µM; TGI (EKVX NSCLC): > 25 µM; GI50 (T-47D breast): > 25 µM; TGI (T-47D breast): > 25 µM; GI50 (BT-549 breast): > 25 µM; TGI (BT-549 breast): > 25 µM; GI50 (UACC-62 melanoma): > 25 µM; TGI (UACC-62 melanoma): > 25 µM; GI50 (UO-31 renal): > 25 µM; TGI (UO-31 renal): > 25 µM; GI50 (COLO 205 colon): > 25 µM; TGI (COLO 205 colon): > 25 µM; GI50 (HOP-62 NSCLC): > 25 µM; TGI (HOP-62 NSCLC): > 25 µM; GI50 (MDA-MB-435): > 25 µM; TGI (MDA-MB-435): > 25 µM; GI50 (K-562 leukemia): > 25 µM; TGI (K-562 leukemia): > 25 µM; GI50 (SW-620 colon): > 25 µM; TGI (SW-620 colon): > 25 µM; GI50 (TK-10 renal): > 25 µM; TGI (TK-10 renal): > 25 µM; GI50 (LOX IMVI melanoma): > 25 µM; TGI (LOX IMVI melanoma): > 25 µM; GI50 (OVCAR-8 ovarian): > 25 µM; TGI (OVCAR-8 ovarian): > 25 µM; GI50 (IGROV1 ovarian): > 25 µM; TGI (IGROV1 ovarian): > 25 µM; GI50 (MALME-3M melanoma): > 25 µM; TGI (MALME-3M melanoma): > 25 µM; GI50 (SF-268 CNS): > 25 µM; TGI (SF-268 CNS): > 25 µM; GI50 (KM12 colon): > 25 µM; TGI (KM12 colon): > 25 µM; GI50 (OVCAR-4 ovarian): > 25 µM; TGI (OVCAR-4 ovarian): > 25 µM; GI50 (OVCAR-3 ovarian): > 25 µM; TGI (OVCAR-3 ovarian): > 25 µM; GI50 (SNB-75 CNS): > 25 µM; TGI (SNB-75 CNS): > 25 µM; GI50 (NCI-H226 lung): > 25 µM; TGI (NCI-H226 lung): > 25 µM; GI50 (NCI/ADR-RES ovarian): > 25 µM; TGI (NCI/ADR-RES ovarian): > 25 µM; GI50 (NCI-H23 lung): > 25 µM; TGI (NCI-H23 lung): > 25 µM; GI50 (PC-3 prostate): > 25 µM; TGI (PC-3 prostate): > 25 µM; GI50 (SN12C renal): > 25 µM; TGI (SN12C renal): > 25 µM; GI50 (SK-MEL-28 melanoma): > 25 µM; TGI (SK-MEL-28 melanoma): > 25 µM; GI50 (RXF 393 renal): 0.79 µM; TGI (RXF 393 renal): > 25 µM; GI50 (NCI-H522 lung): > 25 µM; TGI (NCI-H522 lung): > 25 µM; GI50 (A498 renal): > 25 µM; TGI (A498 renal): > 25 µM; GI50 (HCT-116 colon): > 25 µM; TGI (HCT-116 colon): > 25 µM; GI50 (SF-539 CNS): > 25 µM; TGI (SF-539 CNS): > 25 µM; GI50 (786-0 renal): > 25 µM; TGI (786-0 renal): > 25 µM; GI50 (SF-295 CNS): > 25 µM; TGI (SF-295 CNS): > 25 µM; GI50 (SK-MEL-2 melanoma): > 25 µM; TGI (SK-MEL-2 melanoma): > 25 µM; GI50 (CAKI-1 renal): > 25 µM; TGI (CAKI-1 renal): > 25 µM; GI50 (A549 NSCLC): > 25 µM; TGI (A549 NSCLC): > 25 µM; GI50 (SNB-19 CNS): > 25 µM; TGI (SNB-19 CNS): > 25 µM; GI50 (HCC-2998 colon): > 25 µM; TGI (HCC-2998 colon): > 25 µM; GI50 (MCF7 breast): > 25 µM; TGI (MCF7 breast): > 25 µM; GI50 (DU-145 prostate): > 25 µM; TGI (DU-145 prostate): > 25 µM; GI50 (U251 CNS): > 25 µM; TGI (U251 CNS): > 25 µM; GI50 (MDA-MB-231 breast): > 25 µM; TGI (MDA-MB-231 breast): > 25 µM; GI50 (M14 melanoma): > 25 µM; TGI (M14 melanoma): > 25 µM; GI50 (NCI-H460 lung): > 25 µM; TGI (NCI-H460 lung): > 25 µM; GI50 (ACHN renal): > 25 µM; TGI (ACHN renal): > 25 µM
